Laboratory results as given in patent US7900639B2, “Reconstituted tobaccos containing additive materials” (R. J. Reynolds Tobacco Company, priority 2003, dated 2011).

Legend:
[1] = room temperature
Procedure: The tobacco blend is extracted batch wise at about 130° F. using about 10 to about 15 parts tap water for each part tobacco material. Aqueous tobacco extract is separated from the water insoluble pulp using a centrifuge. The aqueous extract so provided has a soluble solids content of about 5%. The resulting extract is concentrated to a soluble solids content of about 22% to about 28% using a wiped film evaporator. The prepared extract is divided into two portions. To one portion, d-, l-alpha tocopherol is contacted with the resulting mixture (the test extract). […] In the other portion, no d-, l-alpha tocopherol is added, and as such a control extract is provided.
The concentrated liquid tobacco extracts with and without added d-, l-alpha tocopherol mixture are vigorously mixed or homogenized and allowed to set at room temperature conditions for five days.

bacteria = experiment: Extracts tested for bacterial growth; settings: test extract versus control extract without additive

Cc1c(C)c2c(c(C)c1O)CCC(C)(CCCC(C)CCCC(C)CCCC(C)C)O2 (stereo not drawn) [d-, l-alpha tocopherol]
condition of aqueous tobacco extract containing the additive on storage ([1]; approximately 4% d-, l-alpha tocopherol on dried solids, five days, control began to ferment within two days): remained unchanged | separation of the additive in the tobacco extract ([1]; emulsified in test extract, five day test period): no separation | bacteria activity in the extract (bacteria): significantly reduce
